Test [1] has as its system VSMCs. The test can be described thus: Oxidative stress in VSMCs (DCFDA fluorescence). The format is cell-based. The settings on record: 10 μM, fluorescence measured for 6 hours. On the procedure: It is known that the level of reactive oxygen species in cells can be measured by measuring the conversion of 2′,7′—dichlorofluorescein diacetate (DCFDA) to the fluorescent dye 2′,7′-dichlorofluorescein (DCF). The fluorescence generated by cells subjected to DCFDA is directly proportional to the amount of oxidized DCFDA to DCF.
To perform the study, VSMCs (10,000 cells/well) were plated in a 96-well plate and left to adhere overnight. Next, cells were incubated for 1 hour with 20 μM DCFDA. The medium was then changed to medium supplemented with 10 μM vitamin K2 (MK-7). To visualize intracellular oxidative stress, fluorescence was measured for 6 hours and fluorescence intensity was normalized for cell count.

The test system of test [2] is human vascular smooth muscle cells (hVSMCs). The test can be described thus: Vitamin K2 (MK-7) and ATP pathway: ATP luminescence with warfarin. The format is cell-based. The following applies: warfarin 50 μM with vitamin K2 (MK-7) 10 μM, 24 hours. The procedure:
This study was performed in order to determine the effect of vitamin K2 (MK-7) on warfarin-induced oxidative stress in muscles. To perform this study, human vascular smooth muscle cells (hVSMCs; 5,000 cells/well) were plated in 96-well dark plates and left to adhere overnight. Next, cells were incubated for 24 hours with either vehicle only (as blank control), warfarin (10 or 50 μM), vitamin K2 (MK-7) (10 μM), or a combination of warfarin (50 μM) and vitamin K2 (MK-7) (10 μM). Hoechst was added to correct for cell number (1 μg/mL). Next, ATP was measured using mammalian lysis buffer for 5 minutes after which 50 μL ATP substrate solution was added to the wells and incubated for 10 minutes in a dark environment. Finally, medium was transferred to a white plate to measure luminescence.

Test [3] relates to VSMCs. The test can be described thus: ATP increase, 24 h incubation (luminescence). The settings on record: 10 μM, p=0.014 for MK-7. The format is cell-based. The procedure:
This study was performed to determine if vitamin K2 (MK-7) affects ATP generation. ATP is generated via glycolysis in the cytoplasm and via both the Krebs-cycle and oxidative phosphorylation in the mitochondria. ATP generation via glycolysis delivers only 2 ATP, whereas ATP generation in the mitochondria generates some 32 ATP.
(§1) To perform this study, VSCMs (5000 cells/well) were plated in 96-well plates and left to adhere overnight. Next, cells were incubated for 24 hours with either vehicle, vitamin K2 (MK-7) (10 μM), or UQ10 (10 μM). Hoechst was added to correct for cell number (1 μg/mL). Next, ATP was measured using mammalian lysis buffer for 5 minutes after which 50 μL ATP substrate solution was added to the wells and incubated for 10 minutes in a dark environment. Finally, the medium was transferred to a white plate to measure luminescence

For test [4], the system named is VSMCs. The experiment in a line: ATP increase, 48 h incubation with CoCl2 comparison (luminescence). The format is cell-based. The settings on record: 10 μM, vs CoCl2 100 μM. On the procedure:
as §1, with “This study was performed to further investigate the origin of ATP production that is influenced by vitamin K2 (MK-7). To” for “To”, “for 48” for “for 24”, “vehicle, CoCl2 (100 μM),” for “vehicle,”, “5 minutes,” for “5 minutes”, “Finally,” for “Finally, the”, “measure luminescence.” for “measure luminescence”

Test [5] deals with VSMCs. The experiment in a line: Vitamin K2 (MK-7) and hypoxia: ATP on co-treatment with CoCl2. Type of test: cell-based. The settings on record: co-treatment CoCl2 100 μM and 10 μM, 24 hours. The procedure: This study was performed to investigate whether vitamin K2 (MK-7) can prevent the hypoxia-induced decrease in ATP (CoCl2 treatment, thereby stabilization of HIF1a). To perform this study, VSMCs were co-treated with CoCl2 and vitamin K2 (MK-7).
as §1, with “First,” for “To perform this study,”, “CoCl2 (100 μM) or CoCl2 and” for “vehicle,”, “(MK-7)” for “(MK-7) (10 μM),”, “together (100 and 10 μM, respectively). Next, ATP was measured and corrected for cell numbers. CoCl2 values were set as relative to CoCl2 co-treated with vitamin K2 (MK-7) or UQ10.” for “(10 μM).”, “Finally,” for “Finally, the”, “luminescence.” for “luminescence”

Test [6] has as its system transgenic Ren-2 rats [TGR(mREN-2)27]. The experiment in a line: T-TAS thrombus formation in whole blood of treated TGR (Ren-2) rats. Type of test: in vivo, rat. The settings on record: vitamin K2 (MK-7) added. The procedure:
This experiment was conducted in order to evaluate the effects of vitamin K2 (MK-7) on the anticoagulant activity of the new oral anticoagulants (NOAC) rivaroxaban and dabigatran using the T-TAS Total Thrombus-formation Analysis System. The T-TAS Total Thrombus-formation Analysis System is a microchip-based flow chamber system capable of evaluating whole-blood thrombogenicity. It is a useful tool in monitoring the efficacy of anticoagulants on thrombus formation and predicting the risk of bleeding complications. […] Four days before the start of the treatment, the first part of animals' body weight and food intake was measured in selected representative three cages (rats n=9) to calculate the appropriate amount of tested compounds required for addition to the diet to obtain the dosing indicated in Table 1. […] The body mass of the rats was measured at the beginning and at the end of treatment. At the beginning and at the end of treatment, the food intake per day was measured in representative group of animals to monitor the daily dosing of tested compounds (per kg of body mass). The thrombus formation in vitro was measured in whole blood using a microchip-based flow chamber system according to manufacturers' protocol (Total Thrombus-formation Analyser System, T-TAS; Fujimori Kogyo Co., Ltd., Tokyo, Japan). […]

Consider one compound from patent publication US20220160652A1, “USE OF VITAMIN K IN COMBINATION WITH ANTICOAGULANTS” (KAYDENCE PHARMA AS, priority 2019, published 2022).

Consider `CC(C)=CCC/C(C)=C/CC/C(C)=C/CC/C(C)=C/CC/C(C)=C/CC/C(C)=C/CC/C(C)=C/CC1=C(C)C(=O)c2ccccc2C1=O` [vitamin K2 (MK-7)], for which the “oxidative stress in VSMCs (DCF fluorescence)” value in the test on VSMCs [1] was “clearly reduced the oxidative stress”. Further, in test [2], the “oxidative stress induced by warfarin” value is recorded as “counteracted the oxidative stress induced by warfarin”. The “ATP production in VSMCs compared to the vehicle” value with VSMCs [3] is recorded as “increased ATP production in VSMCs significantly”. Also, the “ATP levels compared to CoCl2” value with VSMCs [4] was “significant higher ATP levels”. In the test on VSMCs [5], the “prevention of hypoxia-induced (CoCl2) decrease in ATP generation” value was “could (partially) prevent the decreased ATP generation”. Besides, the “modification of the thrombus formation inhibition by dabigatran and rivaroxaban” value in test [6] was “did not modify this effect significantly”.
